One molecule from patent US20040147595A1, “Biofilm degrading or sloughing compositions and methods” (priority 2001, published 2004) can be followed below.

The subject of one experiment is elastase. Put plainly: Virulence factor production: elastase (proteolytic) activity of PAO-JP2 supernatant. The class given is cell-based, Pseudomonas aeruginosa. Particulars: PAO-JP2, 70 nm OdDHL plus 3 μg/ml and 5 μg/ml furanone 56. The procedure: Measurements of virulence factors. PAO-JP2 was grown in LB medium at 37° C. and shaking at 250 rpm to an OD600 nm of 1.0. The culture was divided into seven subcultures, which were added 0, 70, or 1000 nm OdDHL and 0. 3. or 5 μg/ml furanone 58. The cultures were grown for an additional 4 hours at 37° C. The proteolytic activity was measured as described by Ayora & G{overscore (o)}tz (1994). Azocasein (250 μl 2%, Sigma, St. Louis, Mo.) in 50 mM Tris/HCl and steril-filtered (Ø 0.2 μm) supernatant (150 μl) were incubated for 4 h at […] After precipitation of undigested substrate with trichloroacetic acid (1.2 ml 10%) for 15 minutes, followed by 10 minutes centrifugation at 1000 rpm, NaOH (1.4 ml 1 M) were added to the supernatant. The relative protease activity was measured as the absorbance at 440 nm (OD440 nm) of the supernatant divided by the optical density of the culture (OD600 nm ).

Experiment [1] relates to las quorum sensing system (lasB-gfp(ASV) Plac-lasR). Nature of the experiment: pMHLAS lasB-gfp(ASV) reporter in E. coli MT102. The format is cell-based, Escherichia coli. Particulars: E. coli MT102 host, data not shown. As to the method: AHL and furanone bioassay. Strains were grown exponentially in LB or ABt medium supplemented with 0.5% glucose at 30° C., shading at 250 rpm. At an optical density of approximately 0.8. the cultures were diluted and split into subcultures in glass culture flasks. AHLs and furanone 56 were added to appropriate concentrations and the cultures were further incubated at 30° C. under vigorous shaking. Culture samples were retrieved at various time intervals and green fluorescence was measured with a fluorometer (model RF-1501, Shimadzu, Tokyo, Japan) set at an excitation wavelength of 475 nm and emission wavelength of 515 nm. Relative fluorescence was calculated as green fluorescence normalized to 1 ml culture divided by the optical density (OD600 nm.
Initially, the lasB-gfp(ASV) translational fusion (OdDHL sensor) was thoroughly characterized with respect to its sensitivity and specificity. A culture of E. coli hosting the pMHLAS monitor plasmid was diluted and spilt into several subcultures which were then supplemented with AHLs at concentrations ranging from 0 to 1000 nM. […] When the pMHLAS based reporter system was hosted by PAO-JP2. the OdDHL concentration required for half-maximal activation of the lasB-gfp(ASV) fusion was 8 nM (data not shown). In single copy on the chromosome of PAO-JP2, the OdDHL concentration on required for half-maximal activation of lasB expression was approximately 250 nM (FIG. 2b). Green fluorescent cells were visible by epifluorescence microscopy at a minimal OdDHL concentration of 50 nM (FIG. 2c).
(§1) Effect of the furanone in a heterologous background. The direct regulation exerted by the las regulon on lasB expression is well described by numerous studies (Gambello & Iglewski, 1991: Pearson et al., 1994; Pearson et al., 1997). Regulatory complexity is added by the observation that the las quorum sensing circuit itself is subject to global regulators (Albus et al., 1997; Whiteley et al., 2000) and that lasB expression is also controlled by other regulators than LasR (Brumlik & Storey, 1992; Pesci et al., 1999; Schictman et al., 1995). It was, therefore, important to rule out that QSI effect, observed is not caused by furanone interaction with high levels of control. Since there is no AHL-based quorum sensing system present in Escherichia coli (Williams et al., 2000), this bacterium provides an unbiased and well-defined genetic background for studying the direct effects of the furanone on the P. aeruginosa las quorum sensing system. We repeated the above-described experiments using E. coli MT102 as a heterologous host for the reporter system. […] This is likely to be attributed to the increased copy number of the reporter plasmid.

A further experiment has as its system E. coli MT102. Nature of the experiment: Growth of E. coli MT102. The format is cell-based, Escherichia coli. Conditions: data not shown. The procedure: as §1

With `O=C1C=C/C(=C/Br)O1` [furanone 56], the elastase activity entry in the experiment with elastase is “close to the uninduced level”. Also, the figures for the “QSI activity / lasB promoter activity in heterologous E. coli background” value in experiment [1] and in experiment [1] (listed as furanone) were “repressed lasB promoter activity” and “observed”, respectively. For the same molecule, the effect on growth result in the experiment with E. coli MT102 is listed as “no effect on growth”.
